# Results as given in patent publication US20240252474A1, “METHODS AND COMPOSITIONS COMPRISING A CARDIO-TOLERATED HDAC INHIBITOR” (HUYABIO International, LLC, priority 2023, published 2024).
# Tested on: advanced solid tumors, including melanoma, RCC (renal cell carcinoma), and NSCLC (non-small cell lung cancer)
# Experiment: Tumor response by RECIST v.1.1
# Assay type: in vivo, human
# From the text: The decision to escalate the dose was based on the conventional 3+3 design and observed incidences of dose-limiting toxicities (DLTs). Each treatment cycle was defined as 28 days. To be evaluable for DLT, a subject must have developed DLT, or received the minimum 75% of the planned HBI-8000 dose within the 28-day DLT evaluation period in the absence of treatment delays due to toxicities. Subjects experiencing DLT within the first two weeks after having received 100% of assigned dose of HBI-8000 are also evaluable for DLT. Unacceptable toxicities were defined as grade 3 or higher non-hematologic and hematologic toxicities with clinical complications. Unacceptable toxicities observed over the first 28 days following HBI-8000 administration were considered as DLTs. The RP2D was identified as the highest dose at which the DLT incidence was less than 33.3%. HBI-8000 administration continued until disease progression or unacceptable toxicity was observed. The efficacy of the combination was further evaluated in an expanded cohort of selected patient populations at RP2D based on an objective response rate according to Response Evaluation Criteria in Solid Tumors (RECIST) version 1.1 criteria, progression-free survival, and duration of responses.
# Tumor assessments were performed every 8 weeks until treatment discontinuation, then every 12 (±1) weeks in subjects in whom disease progression has not yet been observed, and followed the guidelines specified by RECIST v.1.1 and immune-related Response Evaluation Criteria In Solid Tumors (iRECIST).
# [1] = HBI-8000 + nivolumab, 3 NSCLC patients
# [2] = HBI-8000 + nivolumab, 5 melanoma patients
# [3] = HBI-8000 + nivolumab, 7 RCC patients
compound,measurement,setting,value
"Nc1cc(F)ccc1NC(=O)c1ccc(CNC(=O)/C=C/c2cccnc2)cc1 [HBI-8000, N-(2-amino-4-fluorophenyl)-4-[[[(2E)-1-oxo-3-(3-pyridinyl)-2-propen-1-yl]amino]methyl]benzamide]","NSCLC, PR",[1],1 patients
same,"NSCLC, stable disease",[1],2 patients
same,"Melanoma, complete response (CR)",[2],1 patients
same,"Melanoma, partial responses (PR)",[2],4 patients
same,Melanoma patients who responded,"HBI-8000 + nivolumab, 5 melanoma patients, RECIST v.1.1",5 patients
same,"RCC, PR",[3],2 patients
same,"RCC, progressive disease",[3],4 patients
same,"RCC, stable disease",[3],1 patients
same,"earliest objective response, time of treatment","HBI-8000 + nivolumab, first scheduled tumor assessment, end of Cycle 2",8 weeks
same,longest time to response after treatment initiation,"one patient, nivolumab and HBI-8000 ceased after 16 months",32 months
